# Laboratory results: ChEMBL document CHEMBL1152209, “Synthesis and biological activity of previtamin D(3) analogues with A-ring modifications” (2008)
# Assays:
# [1] = molecular target: T1, Vitamin D-binding protein (Homo sapiens) (UniProt P02774); assay: Binding affinity to human DBP at EC50 in 4 degC relative to 1-alpha,25-(OH)2D3
# T1 sequence (whole entry): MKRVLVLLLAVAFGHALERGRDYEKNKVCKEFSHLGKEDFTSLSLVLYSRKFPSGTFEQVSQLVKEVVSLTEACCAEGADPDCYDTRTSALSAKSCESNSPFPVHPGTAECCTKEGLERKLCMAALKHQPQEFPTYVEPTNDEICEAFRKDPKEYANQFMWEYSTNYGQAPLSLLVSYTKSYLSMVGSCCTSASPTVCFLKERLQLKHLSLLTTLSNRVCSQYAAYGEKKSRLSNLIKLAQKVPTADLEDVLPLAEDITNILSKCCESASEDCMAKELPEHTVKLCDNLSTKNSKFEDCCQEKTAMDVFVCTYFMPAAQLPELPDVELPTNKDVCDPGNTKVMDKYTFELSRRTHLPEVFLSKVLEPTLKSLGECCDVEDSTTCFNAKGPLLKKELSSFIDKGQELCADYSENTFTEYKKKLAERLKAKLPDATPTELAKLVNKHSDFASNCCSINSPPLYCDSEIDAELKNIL
# MCF7 = assay: Inhibition of human MCF7 cell proliferation assessed as [3H]thymidine incorporation at EC50 after 72 hrs relative to 1-alpha,25-(OH)2D3; type: functional
# [2] = molecular target: T2, Vitamin D3 receptor (Sus scrofa) (UniProt A3RGC1); assay: Displacement of [3H]1-alpha,25-(OH)2D3 from pig VDR at EC50 relative to 1-alpha,25-(OH)2D3
# T2 sequence (whole entry): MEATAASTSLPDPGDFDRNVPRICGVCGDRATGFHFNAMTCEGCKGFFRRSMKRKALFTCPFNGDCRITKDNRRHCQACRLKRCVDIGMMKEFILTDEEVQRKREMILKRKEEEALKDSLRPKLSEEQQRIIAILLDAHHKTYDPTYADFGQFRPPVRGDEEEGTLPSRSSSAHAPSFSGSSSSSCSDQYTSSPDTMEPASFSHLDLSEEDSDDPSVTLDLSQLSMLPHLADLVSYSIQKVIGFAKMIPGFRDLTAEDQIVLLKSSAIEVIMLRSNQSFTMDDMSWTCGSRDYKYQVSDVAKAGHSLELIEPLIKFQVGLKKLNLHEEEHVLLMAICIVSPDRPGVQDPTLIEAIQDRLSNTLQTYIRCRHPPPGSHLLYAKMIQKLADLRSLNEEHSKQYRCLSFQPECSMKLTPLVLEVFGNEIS
Structure (SMILES),Activity [1] [%],inhibition (INH) (MCF7) [%],Activity [2] [%]
C[C@H](CCCC(C)(C)O)[C@H]1CC[C@H]2C(/C=C\C3=C[C@@H](O)[C@H](OCCCO)[C@H](O)C3)=CCC[C@]12C,0.5,0,0
C[C@H](CCCC(C)(C)O)[C@H]1CC[C@H]2C(/C=C\C3=C[C@@H](O)[C@@H]4O[C@@H]4C3)=CCC[C@]12C,0.9,0,0
